Test results taken from patent publication US20250312462A1, “PAK1 DEGRADERS AND METHODS OF USE THEREOF” (INSTITUTE FOR CANCER RESEARCH D/B/A THE RESEARCH INSTITUTE …, priority 2022, published 2025).

Tests used:
Test in all cases: KINOMEscan
Details in all cases: read-out: Percent Control
CDC2L5 = biological target: T1, CDC2L5 (Homo sapiens, UniProt Q14004); assay type: binding
T1 construct: purchased DiscoverX

RET = RET (Homo sapiens, UniProt P07949)
Experimental: (§1) The kinase engagement assay (KINOMEscan®) was performed by DiscoverX assessing binding abilities toward a set of kinases.

CAMK1 = CAMK1 (Homo sapiens, UniProt Q14012)
Experimental: as §1

PRKG1 = PRKG1 (Homo sapiens, UniProt Q13976)
Experimental: as §1

DRAK1 = DRAK1 (Homo sapiens, UniProt Q9UEE5)
Experimental: as §1

FLT3(D835Y) = FLT3(D835Y) (Homo sapiens, UniProt P36888, D835Y)
Experimental: as §1

KIT(V559D, V654A) = KIT(V559D, V654A) (Homo sapiens, UniProt P10721, V559D/V654A)
Experimental: as §1

MET(Y1235D) = MET(Y1235D) (Homo sapiens, UniProt P08581, Y1235D)
Experimental: as §1

MLCK = MLCK (Homo sapiens, UniProt Q32MK0)
Experimental: as §1

CDK3 = CDK3 (Homo sapiens, UniProt Q00526)
Sequence of CDK3 (Q00526 whole entry): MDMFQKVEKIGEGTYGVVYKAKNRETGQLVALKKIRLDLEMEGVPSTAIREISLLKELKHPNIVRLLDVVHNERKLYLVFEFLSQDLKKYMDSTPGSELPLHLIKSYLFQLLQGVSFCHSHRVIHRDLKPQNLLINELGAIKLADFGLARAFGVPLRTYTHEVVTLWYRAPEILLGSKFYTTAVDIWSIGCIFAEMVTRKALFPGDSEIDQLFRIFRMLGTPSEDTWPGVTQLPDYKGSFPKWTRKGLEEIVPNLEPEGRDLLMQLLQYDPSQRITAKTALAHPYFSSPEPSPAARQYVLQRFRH
Experimental: as §1

STK33 = STK33 (Homo sapiens, UniProt Q9BYT3)
Experimental: as §1

LYN = LYN (Homo sapiens, UniProt P07948)
Experimental: as §1

SgK110 = SgK110 (Homo sapiens, UniProt P0C264)
Experimental: as §1

JNK2 = JNK2 (Homo sapiens, UniProt P45984)
Sequence of JNK2 (P45984 whole entry): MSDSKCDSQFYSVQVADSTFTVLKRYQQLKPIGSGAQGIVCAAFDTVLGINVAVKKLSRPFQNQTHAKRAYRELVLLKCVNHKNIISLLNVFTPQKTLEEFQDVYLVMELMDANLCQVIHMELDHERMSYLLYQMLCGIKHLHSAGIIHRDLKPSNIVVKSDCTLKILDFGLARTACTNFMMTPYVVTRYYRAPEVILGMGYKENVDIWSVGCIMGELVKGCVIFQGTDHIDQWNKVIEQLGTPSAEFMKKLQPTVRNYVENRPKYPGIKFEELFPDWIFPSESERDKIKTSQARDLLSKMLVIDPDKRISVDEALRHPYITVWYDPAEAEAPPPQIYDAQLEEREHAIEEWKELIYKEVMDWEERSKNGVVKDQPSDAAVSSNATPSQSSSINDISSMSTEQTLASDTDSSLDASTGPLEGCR
Experimental: as §1

KIT(L576P) = KIT(L576P) (Homo sapiens, UniProt P10721, L576P)
Experimental: as §1

EGFR(L858R, T790M) = EGFR(L858R, T790M) (Homo sapiens, UniProt P00533, L858R/T790M)
Experimental: as §1

PFTK1 = PFTK1 (Homo sapiens, UniProt O94921)
Experimental: as §1

SNRK = SNRK (Homo sapiens, UniProt Q9NRH2)
Sequence of SNRK (Q9NRH2 whole entry): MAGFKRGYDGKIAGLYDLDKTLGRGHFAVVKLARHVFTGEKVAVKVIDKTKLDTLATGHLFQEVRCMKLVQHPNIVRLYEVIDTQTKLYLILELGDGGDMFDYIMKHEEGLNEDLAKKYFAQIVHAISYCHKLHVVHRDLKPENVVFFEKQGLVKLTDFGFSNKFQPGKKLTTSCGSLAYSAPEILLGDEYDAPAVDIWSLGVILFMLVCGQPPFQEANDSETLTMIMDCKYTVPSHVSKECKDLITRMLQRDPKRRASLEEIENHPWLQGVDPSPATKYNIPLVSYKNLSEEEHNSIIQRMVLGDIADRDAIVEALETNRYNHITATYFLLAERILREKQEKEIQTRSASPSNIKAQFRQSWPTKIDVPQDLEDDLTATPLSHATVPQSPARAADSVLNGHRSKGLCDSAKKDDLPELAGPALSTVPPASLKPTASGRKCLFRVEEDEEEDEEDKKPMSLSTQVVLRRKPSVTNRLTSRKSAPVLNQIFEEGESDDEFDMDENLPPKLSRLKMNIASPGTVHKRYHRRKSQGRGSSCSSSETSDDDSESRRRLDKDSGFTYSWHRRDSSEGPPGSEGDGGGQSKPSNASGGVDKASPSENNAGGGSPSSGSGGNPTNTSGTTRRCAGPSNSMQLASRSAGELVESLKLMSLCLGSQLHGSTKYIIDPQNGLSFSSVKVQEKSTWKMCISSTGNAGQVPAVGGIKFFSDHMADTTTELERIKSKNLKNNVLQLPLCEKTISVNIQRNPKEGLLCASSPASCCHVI
Experimental: as §1

PCTK3 = PCTK3 (Homo sapiens, UniProt Q07002)
Experimental: as §1

[1] = biological target: TYK2(JH1domain-catalytic) (Homo sapiens, UniProt P29597)
Experimental: as §1

p38-delta = p38-delta (Homo sapiens, UniProt O15264)
Experimental: as §1

ULK3 = ULK3 (Homo sapiens, UniProt Q6PHR2)
Sequence of ULK3 (Q6PHR2 whole entry): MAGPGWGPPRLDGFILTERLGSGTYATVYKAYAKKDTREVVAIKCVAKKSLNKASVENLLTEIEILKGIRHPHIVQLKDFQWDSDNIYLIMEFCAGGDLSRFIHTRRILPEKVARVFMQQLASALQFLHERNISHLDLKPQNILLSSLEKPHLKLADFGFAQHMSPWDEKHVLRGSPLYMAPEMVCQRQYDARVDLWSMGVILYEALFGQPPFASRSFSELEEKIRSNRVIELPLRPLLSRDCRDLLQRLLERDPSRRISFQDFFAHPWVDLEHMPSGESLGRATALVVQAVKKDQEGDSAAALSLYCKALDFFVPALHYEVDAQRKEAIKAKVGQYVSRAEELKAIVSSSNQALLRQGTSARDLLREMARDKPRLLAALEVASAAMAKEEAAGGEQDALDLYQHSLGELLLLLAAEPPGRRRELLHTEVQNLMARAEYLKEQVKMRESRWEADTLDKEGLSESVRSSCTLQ
Experimental: as §1

CSNK1A1 = CSNK1A1 (Homo sapiens, UniProt P48729)
Sequence of CSNK1A1 (P48729 whole entry): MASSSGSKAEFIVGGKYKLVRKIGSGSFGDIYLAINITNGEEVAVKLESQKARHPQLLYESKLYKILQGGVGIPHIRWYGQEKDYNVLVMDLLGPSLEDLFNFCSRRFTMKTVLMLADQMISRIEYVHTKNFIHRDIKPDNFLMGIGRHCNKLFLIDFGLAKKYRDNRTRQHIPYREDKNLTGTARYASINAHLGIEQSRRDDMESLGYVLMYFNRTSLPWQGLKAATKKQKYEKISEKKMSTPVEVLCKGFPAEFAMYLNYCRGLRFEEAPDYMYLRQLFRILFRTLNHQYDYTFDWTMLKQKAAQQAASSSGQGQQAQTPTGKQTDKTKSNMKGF
Experimental: as §1

[2] = biological target: JAK3(JH1domain-catalytic) (Homo sapiens, UniProt P52333)
Experimental: as §1

MARK1 = MARK1 (Homo sapiens, UniProt Q9P0L2)
Experimental: as §1

YANK2 = YANK2 (Homo sapiens, UniProt Q9NY57)
Sequence of YANK2 (Q9NY57 whole entry): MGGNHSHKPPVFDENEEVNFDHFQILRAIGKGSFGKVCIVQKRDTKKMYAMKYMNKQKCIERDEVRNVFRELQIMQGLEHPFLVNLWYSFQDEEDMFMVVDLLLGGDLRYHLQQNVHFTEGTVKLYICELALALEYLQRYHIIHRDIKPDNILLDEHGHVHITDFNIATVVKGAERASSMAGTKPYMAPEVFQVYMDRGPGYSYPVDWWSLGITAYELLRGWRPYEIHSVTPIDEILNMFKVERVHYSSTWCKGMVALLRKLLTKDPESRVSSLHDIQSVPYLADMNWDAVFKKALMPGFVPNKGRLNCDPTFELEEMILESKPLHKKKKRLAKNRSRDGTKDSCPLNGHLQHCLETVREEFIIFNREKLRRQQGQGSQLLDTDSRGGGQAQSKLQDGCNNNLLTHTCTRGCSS
Experimental: as §1

CSF1R-autoinhibited = CSF1R-autoinhibited (Homo sapiens, UniProt P07333)
Experimental: as §1

DYRK1A = DYRK1A (Homo sapiens, UniProt Q13627)
Experimental: as §1

HUNK = HUNK (Homo sapiens, UniProt P57058)
Sequence of HUNK (P57058 whole entry): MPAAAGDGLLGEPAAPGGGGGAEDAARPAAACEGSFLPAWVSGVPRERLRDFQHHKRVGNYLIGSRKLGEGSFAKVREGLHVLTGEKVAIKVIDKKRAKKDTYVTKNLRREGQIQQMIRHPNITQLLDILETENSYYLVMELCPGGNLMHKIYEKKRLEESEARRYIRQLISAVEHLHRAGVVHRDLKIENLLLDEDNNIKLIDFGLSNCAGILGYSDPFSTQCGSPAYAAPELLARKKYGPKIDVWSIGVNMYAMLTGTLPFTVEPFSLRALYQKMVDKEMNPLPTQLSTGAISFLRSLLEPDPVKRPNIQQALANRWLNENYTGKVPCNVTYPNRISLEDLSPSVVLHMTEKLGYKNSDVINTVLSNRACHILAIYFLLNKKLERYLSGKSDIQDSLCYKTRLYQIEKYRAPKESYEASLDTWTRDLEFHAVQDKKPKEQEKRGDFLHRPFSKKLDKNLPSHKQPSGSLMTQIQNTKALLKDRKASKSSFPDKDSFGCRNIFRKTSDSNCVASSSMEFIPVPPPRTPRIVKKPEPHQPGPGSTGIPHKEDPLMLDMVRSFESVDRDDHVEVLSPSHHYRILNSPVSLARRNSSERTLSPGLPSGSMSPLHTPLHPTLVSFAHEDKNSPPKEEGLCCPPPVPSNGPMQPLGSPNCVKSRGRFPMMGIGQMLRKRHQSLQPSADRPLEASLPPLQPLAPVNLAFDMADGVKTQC
Experimental: as §1

LATS2 = LATS2 (Homo sapiens, UniProt Q9NRM7)
Experimental: as §1

MEK1 = MEK1 (Homo sapiens, UniProt Q02750)
Sequence of MEK1 (Q02750 whole entry): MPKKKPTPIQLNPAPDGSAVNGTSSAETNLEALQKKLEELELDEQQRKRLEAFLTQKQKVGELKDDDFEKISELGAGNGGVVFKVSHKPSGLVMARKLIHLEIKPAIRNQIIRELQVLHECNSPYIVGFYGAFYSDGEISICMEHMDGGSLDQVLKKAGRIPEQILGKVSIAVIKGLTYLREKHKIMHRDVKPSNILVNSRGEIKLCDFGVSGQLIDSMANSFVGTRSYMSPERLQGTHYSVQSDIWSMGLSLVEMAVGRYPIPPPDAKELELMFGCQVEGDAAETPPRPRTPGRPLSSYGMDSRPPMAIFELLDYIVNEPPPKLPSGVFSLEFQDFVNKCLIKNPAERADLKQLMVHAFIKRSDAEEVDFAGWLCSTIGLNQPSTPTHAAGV
Experimental: as §1

PIP5K2B = PIP5K2B (Homo sapiens, UniProt P78356)
Experimental: as §1

TSSK3 = TSSK3 (Homo sapiens, UniProt Q96PN8)
Experimental: as §1

Sequence of RET (P07949 29-1114): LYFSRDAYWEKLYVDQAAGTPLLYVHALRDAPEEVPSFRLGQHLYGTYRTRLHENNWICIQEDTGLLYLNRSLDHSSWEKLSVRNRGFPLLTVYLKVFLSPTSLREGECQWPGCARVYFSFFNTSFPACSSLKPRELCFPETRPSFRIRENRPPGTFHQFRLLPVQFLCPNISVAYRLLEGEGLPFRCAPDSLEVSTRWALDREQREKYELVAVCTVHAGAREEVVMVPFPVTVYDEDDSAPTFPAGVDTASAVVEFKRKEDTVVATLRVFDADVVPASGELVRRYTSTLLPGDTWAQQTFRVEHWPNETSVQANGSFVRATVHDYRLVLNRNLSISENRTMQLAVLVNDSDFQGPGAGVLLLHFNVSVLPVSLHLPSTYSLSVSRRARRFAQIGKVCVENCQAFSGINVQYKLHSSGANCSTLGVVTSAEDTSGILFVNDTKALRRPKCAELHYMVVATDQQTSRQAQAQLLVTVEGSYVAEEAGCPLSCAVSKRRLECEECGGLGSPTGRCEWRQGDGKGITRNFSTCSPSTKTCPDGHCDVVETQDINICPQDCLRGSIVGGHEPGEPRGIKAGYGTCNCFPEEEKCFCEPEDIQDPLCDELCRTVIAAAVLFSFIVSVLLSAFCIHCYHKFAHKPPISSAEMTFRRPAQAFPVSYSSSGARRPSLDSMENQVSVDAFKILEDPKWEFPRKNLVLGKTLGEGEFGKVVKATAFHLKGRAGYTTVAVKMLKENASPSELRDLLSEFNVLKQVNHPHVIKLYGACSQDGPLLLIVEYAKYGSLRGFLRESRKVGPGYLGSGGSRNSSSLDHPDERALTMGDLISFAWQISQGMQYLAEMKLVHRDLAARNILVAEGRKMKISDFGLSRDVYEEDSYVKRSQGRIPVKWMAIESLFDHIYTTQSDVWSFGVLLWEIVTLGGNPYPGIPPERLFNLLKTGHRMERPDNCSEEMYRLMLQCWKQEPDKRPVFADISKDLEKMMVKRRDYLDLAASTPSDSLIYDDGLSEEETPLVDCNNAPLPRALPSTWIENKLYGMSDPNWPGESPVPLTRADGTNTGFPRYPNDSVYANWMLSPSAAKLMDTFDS

Q: `O=C1CCC(N2C(=O)c3cccc(NCCCCCCCCNC(=O)N4CC[C@H](NC5=Nc6cc(F)ccc6N(CC(F)F)c6ccc(Cl)cc65)C4)c3C2=O)C(=O)N1` (stereo partly drawn) [BJG-05-039, (3S)-3-((2-Chloro-5-(2,2-difluoroethyl)-8-fluoro-5H-dibenzo[b,e][1,4]diazepin-11-yl)amino)-N-(8-((2-(2,6-dioxopiperidin-3-yl)-1,3-dioxoisoindolin-4-yl)amino)octyl)pyrrolidine-1-carboxamide] was tested. Which remaining binding at 10 µM (CDC2L5) did it give?
A: 82%

Q: And the remaining binding at 10 µM (RET)?
A: 46%

Q: And the remaining binding at 10 µM (CAMK1)?
A: 52%

Q: What about the remaining binding at 10 µM (PRKG1) of the same molecule?
A: 57%

Q: What about the remaining binding at 10 µM (DRAK1) of the same molecule?
A: 59%

Q: What about the remaining binding at 10 µM (FLT3(D835Y)) of the same molecule?
A: 63%

Q: And the remaining binding at 10 µM (KIT(V559D, V654A))?
A: 63%

Q: And the remaining binding at 10 µM (MET(Y1235D))?
A: 63%

Q: And the remaining binding at 10 µM (MLCK)?
A: 66%

Q: What about the remaining binding at 10 µM (CDK3) of the same molecule?
A: 74%

Q: And the remaining binding at 10 µM (STK33)?
A: 75%

Q: And the remaining binding at 10 µM (LYN)?
A: 79%

Q: What about the remaining binding at 10 µM (SgK110) of the same molecule?
A: 83%

Q: And the remaining binding at 10 µM (JNK2)?
A: 84%

Q: And the remaining binding at 10 µM (KIT(L576P))?
A: 84%

Q: What about the remaining binding at 10 µM (EGFR(L858R, T790M)) of the same molecule?
A: 86%

Q: And the remaining binding at 10 µM (PFTK1)?
A: 88%

Q: And the remaining binding at 10 µM (SNRK)?
A: 89%

Q: And the remaining binding at 10 µM (PCTK3)?
A: 91%

Q: What about the remaining binding at 10 µM [1] of the same molecule?
A: 91%

Q: And the remaining binding at 10 µM (p38-delta)?
A: 92%

Q: And the remaining binding at 10 µM (ULK3)?
A: 92%

Q: And the remaining binding at 10 µM (CSNK1A1)?
A: 93%

Q: What about the remaining binding at 10 µM [2] of the same molecule?
A: 97%

Q: What about the remaining binding at 10 µM (MARK1) of the same molecule?
A: 98%

Q: What about the remaining binding at 10 µM (YANK2) of the same molecule?
A: 99%

Q: And the remaining binding at 10 µM (CSF1R-autoinhibited)?
A: 100%

Q: What about the remaining binding at 10 µM (DYRK1A) of the same molecule?
A: 100%

Q: And the remaining binding at 10 µM (HUNK)?
A: 100%

Q: What about the remaining binding at 10 µM (LATS2) of the same molecule?
A: 100%

Q: And the remaining binding at 10 µM (MEK1)?
A: 100%

Q: What about the remaining binding at 10 µM (PIP5K2B) of the same molecule?
A: 100%

Q: What about the remaining binding at 10 µM (TSSK3) of the same molecule?
A: 100%
